Data: patent US7514432B2, “Compounds and methods of treating cell proliferative diseases, retinopathies and arthritis” (Exonhit Therapeutics SA, priority 2003, dated 2009)
Where two headings read alike, the source gives them in different places.

Assays:
[1] = test system: HCT116; test: Cell viability assay (MTT), HCT116; format: cell-based, human; conditions: 1% DMSO
Procedure, shortened: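 Cells seeded 24 h before treatment with 0–200 μM compound (11 concentrations, 1% DMSO final) in 10% or 0.5% FBS medium; exposure 16 h, 3 or 6 days, fed every 3 days in 6-day runs. MTT 0.5 mg/ml read at 550 nm; IC50 from dose-response curves, mean±SEM.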

[2] = test system: NIH 3T3; test: Cell viability assay (MTT), NIH 3T3; format: cell-based, mouse; conditions: 10% FBS, 1% DMSO
Procedure, shortened: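 MTT viability in medium with 10% FBS and 1% DMSO, with cells seeded 24 h before treatment at 0–200 μM (11 concentrations). There were two formats: 6-day (3–15 10^3 cells, re-fed every 3 days) or 16-hour (5–10 10^4 cells). Absorbance was read at 550 nm, giving IC50 (50% cell death) as mean±SEM.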

[3] = test system: Primary Hepatocytes; test: Cell viability assay (MTT), primary hepatocytes; format: cell-based; conditions: Hepatocyte, 10% FBS, 16-hours treatment, 1% DMSO
Experimental: Table 15: 16-hour cell viability assay (MTT) in the presence of 10% Fetal Bovine Serum and 1% DMSO, in HCT116, MDA-MB-231, NIH3T3, HepG2 and primary hepatocytes. 5 10^4 to 10 10^4 cells were seeded in 48-well plates in growth medium containing 10% FBS, with or without various concentrations of test compounds. Data were analyzed and IC50s were calculated from dose-reponse curves using GraphPad Prism. Results summarized in the tables are mean±SEM of 1 to 2 independent experiments.
In order to determine a compound's effect on cell viability, microculture tetrazolium assays (MTT) were performed as described by Carmichael et al. (1996) with modifications. Four human tumoral cell lines, namely HCT116 colon adenocarcinoma, H460 lung carcinoma, MCF-7 and MDA-MB-231 breast carcinoma cell lines, DLD1 colorectal adenocarcinoma, HeLa adenocarcinoma, HepG2 hepatocellular carcinoma. 3 immortalized but non tumorigenic cell lines, namely NIH3T3 mouse fibroblasts (American Type Culture Collection) and primary hepatocytes (Biopredic international), cultured according to their recommendations together with Human Microvasculature Endothelial Cell line HMEC1 (National Center for Infectious Diseases). Briefly, cells were seeded in 48-well plates 24 hours before drug addition. Cells were treated with 0 to 200 μM (11 concentrations) of compound solubilized in DMSO, adjusting the final concentration of DMSO to 1% in the well. 16 hours, and three or six days after treatment, 0.5 mg/ml MTT (Sigma) was added to the medium and cells were incubated for 1-5 hours at 37° C. before solubilization of formazan crystals in 100% DMSO. Absorbance was measured using a spectrophotometer at a wavelength of 550 nm. Data was analyzed using the GraphPad Prism software (GraphPad Software, Inc.), and IC50 (dose leading to 50% cell death) was calculated from the dose-response curves.

[4] = test system: HMEC1; test: Boyden chamber migration assay, HMEC1; format: cell-based; conditions: Homo sapiens, read-out: IC50, migration in Boyden chamber, HMEC1
Experimental: FIG. 4: Migration assays. (A) Wound healing assay in REF cells. 7.6 10^4 cells were plated on coverslips 48 hours before the experiment. The cells were pre-treated for 30 min. with the compounds, and then a scrape was done using a pipette tip. The scraped coverslips in treatment medium were put under a thermostated microscope coupled to a video camera. Movies were analyzed as described in material and methods, and velocity and total distance covered by the cells were evaluated. Bar graphs represent the mean±SEM of 2 to 4 experiments. (B) Boyden chamber migration assay in HMEC1, NIH3T3 and MDA-MB-231 cells. 5 10^4 to 7.5 10^4 Cells, resuspended in culture medium with or without FBS and with different compound concentrations, were seeded in the upper Boyden blind well on top of 8 μm pore-sized filters. The ability of the cells to migrate through the filter was assayed in the absence or presence of FBS in the lower Boyden chamber. After 16 hours incubation, the medium was removed and replaced with calcein-AM containing medium. After labeling, cells were washed with HBSS and fluorescence was read in a fluorescence plate reader. Fluorescence values were normalized against the fluorescence obtained for the 1% DMSO control. The data plotted are the means±SEM of 2 to 4 independent experiments.
An essential characteristic of malignant cells is their ability to migrate, invade host tissues and to produce metastases. In order to evaluate the capacity of one compound to affect the ability of tumoral cells to migrate, migration assays were performed using highly invasive tumoral cells MDA-MB-231, endothelial cells HMEC1 or fibroblastic cells NIH3T3. This assay was performed using Falcon HTS Fluoroblock inserts. […] Fluorescence data were collected using Fluoroskan Ascent FL fluorescence plate reader at an excitation wavelength (Ex) of 485 nm and emission wavelength (Em) of 517 nm. Only those labelled cells that passed through the Matrigel layer and the membrane were detected. […]

[5] = Homo sapiens, HCT-116, 16 h, 10% FBS, 16-hours treatment
[6] = Homo sapiens, HCT-116, 72 h, 10% FBS, 3-day treatment
[7] = Homo sapiens, HCT-116, 144 h, 0.5% FBS, 6-day treatment
[8] = Homo sapiens, HCT-116, 144 h, 10% FBS, 6-day treatment
[9] = Mus musculus, NIH3T3, 16 h, 16-hours treatment
[10] = Mus musculus, NIH3T3, 144 h, 6-day treatment
[11] = 10% FBS, 6-day treatment, trihydrochloride
[12] = HMEC-1, FBS as chemoattractant, 16 hours

| SMILES | IC50 ([1]; 10% FBS, 6-day treatment, dihydrochloride) [µM] | IC50 [1, 5] [µM] | IC50 [1, 6] [µM] | IC50 [1, 7] [µM] | IC50 [1, 8] [µM] | IC50 [2, 9] [µM] | IC50 [2, 10] [µM] | IC50 [3] [µM] | IC50 ([4]; HMEC-1, 16 h) [µM] | IC50 [1, 11] [µM] | IC50 [4, 12] [µM] | IC50 ([2]; 6-day treatment, trihydrochloride) [µM] |
| --- | --- | --- | --- | --- | --- | --- | --- | --- | --- | --- | --- | --- |
| Cl.Cl.O=c1cc(CN2CCOCC2)occ1OCCCCCSc1ccnc2cc(C(F)(F)F)ccc12 [EHT 1864, 5-(5-(7-(Trifluoromethyl)quinolin-4-ylthio)pentyloxy)-2-(morpholinomethyl)-4H-pyran-4-one dihydrochloride] | 2.7 | 37 | 6.1 | 6.6 | < 4 | 69.3 | 19.8 | > 50 | 7.8 ± 1.7 | – | – | – |
| Cl.Cl.Cl.O=c1cc(CN2CCNCC2)occ1OCCCCCSc1ccnc2cc(C(F)(F)F)ccc12 [EHT 8560, 5-(5-(7-(Trifluoromethyl)quinolin-4-ylthio)pentyloxy)-2-((piperazin-1-yl)methyl)-4H-pyran-4-one trihydrochloride] | – | – | 4 | 4.6 | < 4 | – | 5.1 | 17.3 | – | 3.8 | 9.5 ± 0.3 | – |
| CN1CCN(Cc2cc(=O)c(OCCCCCSc3ccnc4cc(C(F)(F)F)ccc34)co2)CC1.Cl.Cl.Cl [EHT 9241, 5-(5-(7-(Trifluoromethyl)quinolin-4-ylthio)pentyloxy)-2-((4-methylpiperazin-1-yl)methyl)-4H-pyran-4-one trihydrochloride] | – | 31.3 | 5.7 | 6.2 | < 4 | 25.6 | – | 29.6 | – | 4 | 9.1 ± 1.4 | 8.7 |
